Among the data in ChEMBL document CHEMBL5042477, “Potent Cyclic Peptide Inhibitors of FXIIa Discovered by mRNA Display with Genetic Code Reprogramming” (J Med Chem, 2021) are IC50 values, retold here.

By IC50 is commonly meant the midpoint of a concentration-inhibition curve.

Where a SMILES comes first, the peptide text is derived from it. Bridges are numbered along the chain shown (N, C = ends). [ ]: non-standard residue; d: D form. Tyr(3-NO2) = N[C@@H](Cc1ccc(O)c([N+](=O)[O-])c1)C(=O)O; Phe(3-CF3) = N[C@@H](Cc1cccc(C(F)(F)F)c1)C(=O)O; Tyr(3-F) = N[C@@H](Cc1ccc(O)c(F)c1)C(=O)O; Phe(3-CN) = N#Cc1cccc(C[C@H](N)C(=O)O)c1; Phe(3-OMe) = COc1cccc(C[C@H](N)C(=O)O)c1; Phe(4-CN) = N#Cc1ccc(C[C@H](N)C(=O)O)cc1; Phe(4-F) = N[C@@H](Cc1ccc(F)cc1)C(=O)O; 1Nal = N[C@@H](Cc1cccc2ccccc12)C(=O)O; Phe(2-F) = N[C@@H](Cc1ccccc1F)C(=O)O; hTyr = N[C@@H](CCc1ccc(O)cc1)C(=O)O; 3Pal = N[C@@H](Cc1cccnc1)C(=O)O; 4Pal = N[C@@H](Cc1ccncc1)C(=O)O; Orn = NCCC[C@H](N)C(=O)O

For this test, the target named is T1, Coagulation factor XII (Homo sapiens, UniProt P00748).
T1 sequence (P00748 whole entry): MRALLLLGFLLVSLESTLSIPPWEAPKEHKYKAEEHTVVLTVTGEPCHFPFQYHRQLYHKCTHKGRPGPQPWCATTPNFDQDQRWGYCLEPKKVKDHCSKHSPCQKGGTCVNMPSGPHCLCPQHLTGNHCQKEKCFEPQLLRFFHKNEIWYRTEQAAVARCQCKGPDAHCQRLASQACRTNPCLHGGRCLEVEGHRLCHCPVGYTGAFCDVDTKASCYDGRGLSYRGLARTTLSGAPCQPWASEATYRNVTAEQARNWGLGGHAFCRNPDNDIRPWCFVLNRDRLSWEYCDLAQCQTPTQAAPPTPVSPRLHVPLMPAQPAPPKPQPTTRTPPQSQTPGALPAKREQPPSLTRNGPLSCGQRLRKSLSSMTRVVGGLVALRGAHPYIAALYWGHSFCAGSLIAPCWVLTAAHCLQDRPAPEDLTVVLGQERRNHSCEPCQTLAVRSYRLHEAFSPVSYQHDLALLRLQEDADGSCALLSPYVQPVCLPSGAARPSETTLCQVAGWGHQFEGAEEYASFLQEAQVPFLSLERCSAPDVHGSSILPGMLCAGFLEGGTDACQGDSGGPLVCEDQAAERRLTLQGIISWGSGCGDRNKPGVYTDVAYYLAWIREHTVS
Briefly: Inhibition of human factor 12a using H-D-Pro-Phe-Arg-p-nitroanilide as chromogenic substrate assessed as liberation of p-nitroaniline measured every 5 mins for 60 min by multimode plate reader analysis.
As to `CC(C)C[C@@H]1NC(=O)[C@H](Cc2cccc(C#N)c2)NC(=O)CSC[C@@H](C(N)=O)NC(=O)CNC(=O)CNC(=O)[C@H](CCCNC(=N)N)NC(=O)[C@H](CC(=O)O)NC(=O)[C@H](CCCCN)NC(=O)[C@@H]2CCCN2C(=O)[C@H](CCCNC(=N)N)NC(=O)[C@H](Cc2ccccc2)NC(=O)[C@H](CCCNC(=N)N)NC1=O` ({CH2CO}-[Phe(3-CN)]LRFRPKDRGGC-NH2; thioether N-12), the half-maximal inhibitory concentration (IC50) was found to be 3.1 µM. Take `CC(C)C[C@@H]1NC(=O)[C@H](C(C)C)NC(=O)CSC[C@@H](C(N)=O)NC(=O)CNC(=O)CNC(=O)[C@H](CCCNC(=N)N)NC(=O)[C@H](CC(=O)O)NC(=O)[C@H](CCCCN)NC(=O)[C@@H]2CCCN2C(=O)[C@H](CCCNC(=N)N)NC(=O)[C@H](Cc2ccccc2)NC(=O)[C@H](CCCNC(=N)N)NC1=O` ({CH2CO}-VLRFRPKDRGGC-NH2; thioether N-12): the concentration for half-maximal inhibition (IC50) amounted to 210 µM. As for `CC(C)C[C@@H]1NC(=O)[C@H](Cc2ccc(O)cc2)NC(=O)CSC[C@@H](C(N)=O)NC(=O)CNC(=O)CNC(=O)[C@H](CCCNC(=N)N)NC(=O)[C@H](CC(=O)O)NC(=O)[C@H](CCCCN)NC(=O)[C@@H]2CCCN2C(=O)[C@H](CCCNC(=N)N)NC(=O)[C@H](Cc2ccncc2)NC(=O)[C@H](CCCNC(=N)N)NC1=O` ({CH2CO}-YLR[4Pal]RPKDRGGC-NH2; thioether N-12), the IC50 turned out to be 0.12 µM. In the case of `CC(C)C[C@@H]1NC(=O)[C@H](Cc2cccnc2)NC(=O)CSC[C@@H](C(N)=O)NC(=O)CNC(=O)CNC(=O)[C@H](CCCNC(=N)N)NC(=O)[C@H](CC(=O)O)NC(=O)[C@H](CCCCN)NC(=O)[C@@H]2CCCN2C(=O)[C@H](CCCNC(=N)N)NC(=O)[C@H](Cc2ccccc2)NC(=O)[C@H](CCCNC(=N)N)NC1=O` ({CH2CO}-[3Pal]LRFRPKDRGGC-NH2; thioether N-12) it was 15 µM; in that of `CC(C)C[C@@H]1NC(=O)[C@H](Cc2ccc(F)cc2)NC(=O)CSC[C@@H](C(N)=O)NC(=O)CNC(=O)CNC(=O)[C@H](CCCNC(=N)N)NC(=O)[C@H](CC(=O)O)NC(=O)[C@H](CCCCN)NC(=O)[C@@H]2CCCN2C(=O)[C@H](CCCNC(=N)N)NC(=O)[C@H](Cc2ccccc2)NC(=O)[C@H](CCCNC(=N)N)NC1=O` ({CH2CO}-[Phe(4-F)]LRFRPKDRGGC-NH2; thioether N-12), 0.47 µM; in that of `CC(C)C[C@@H]1NC(=O)[C@H](Cc2ccc(O)cc2)NC(=O)CSC[C@@H](C(N)=O)NC(=O)CNC(=O)CNC(=O)[C@H](CCCNC(=N)N)NC(=O)[C@H](CC(=O)O)NC(=O)[C@H](CCCCN)NC(=O)[C@@H]2CCCN2C(=O)[C@H](CCCNC(=N)N)NC(=O)[C@H](Cc2cccc(C(F)(F)F)c2)NC(=O)[C@H](CCCNC(=N)N)NC1=O` ({CH2CO}-YLR[Phe(3-CF3)]RPKDRGGC-NH2; thioether N-12), 0.093 µM. The value for `CC(C)C[C@@H]1NC(=O)[C@H](Cc2ccc(O)cc2)NC(=O)CSC[C@@H](C(N)=O)NC(=O)CNC(=O)CNC(=O)[C@H](CCCNC(=N)N)NC(=O)[C@H](CC(=O)O)NC(=O)[C@H](CCCCN)NC(=O)[C@@H]2CCCN2C(=O)[C@H](CCCNC(=N)N)NC(=O)[C@H](Cc2ccc(C#N)cc2)NC(=O)[C@H](CCCNC(=N)N)NC1=O` ({CH2CO}-YLR[Phe(4-CN)]RPKDRGGC-NH2; thioether N-12) was 0.09 µM; that for `CC(C)C[C@@H]1NC(=O)[C@H](Cc2ccc(C#N)cc2)NC(=O)CSC[C@@H](C(N)=O)NC(=O)CNC(=O)CNC(=O)[C@H](CCCNC(=N)N)NC(=O)[C@H](CC(=O)O)NC(=O)[C@H](CCCCN)NC(=O)[C@@H]2CCCN2C(=O)[C@H](CCCNC(=N)N)NC(=O)[C@H](Cc2ccccc2)NC(=O)[C@H](CCCNC(=N)N)NC1=O` ({CH2CO}-[Phe(4-CN)]LRFRPKDRGGC-NH2; thioether N-12) was 8.1 µM; that for `CC(C)C[C@@H]1NC(=O)[C@H](Cc2ccccc2F)NC(=O)CSC[C@@H](C(N)=O)NC(=O)CNC(=O)CNC(=O)[C@H](CCCNC(=N)N)NC(=O)[C@H](CC(=O)O)NC(=O)[C@H](CCCCN)NC(=O)[C@@H]2CCCN2C(=O)[C@H](CCCNC(=N)N)NC(=O)[C@H](Cc2ccccc2)NC(=O)[C@H](CCCNC(=N)N)NC1=O` ({CH2CO}-[Phe(2-F)]LRFRPKDRGGC-NH2; thioether N-12) was 0.35 µM.

`COc1cccc(C[C@@H]2NC(=O)[C@H](CCCNC(=N)N)NC(=O)[C@H](CC(C)C)NC(=O)[C@H](Cc3ccc(O)cc3)NC(=O)CSC[C@@H](C(N)=O)NC(=O)CNC(=O)CNC(=O)[C@H](CCCNC(=N)N)NC(=O)[C@H](CC(=O)O)NC(=O)[C@H](CCCCN)NC(=O)[C@@H]3CCCN3C(=O)[C@H](CCCNC(=N)N)NC2=O)c1` ({CH2CO}-YLR[Phe(3-OMe)]RPKDRGGC-NH2; thioether N-12): the IC50 came to 0.12 µM. Turning to `CC(C)C[C@@H]1NC(=O)[C@H](Cc2ccc(O)cc2)NC(=O)CSC[C@@H](C(N)=O)NC(=O)CNC(=O)CNC(=O)[C@H](CCC(N)=O)NC(=O)[C@H](C)NC(=O)[C@H]([C@@H](C)O)NC(=O)[C@@H]2CCCN2C(=O)[C@H](CCCCN)NC(=O)[C@H](CC(C)C)NC(=O)[C@H](CCCNC(=N)N)NC1=O` ({CH2CO}-YLRLKPTAQGGC-NH2; thioether N-12), the half-maximal inhibitory concentration (IC50) is 0.59 µM. As to `CC(C)C[C@@H]1NC(=O)[C@H](Cc2ccc(O)cc2)NC(=O)CSC[C@@H](C(N)=O)NC(=O)CNC(=O)CNC(=O)[C@H](CCCNC(=N)N)NC(=O)[C@H](CC(=O)O)NC(=O)[C@H](CCCCN)NC(=O)[C@@H]2CCCN2C(=O)[C@H](CCCN)NC(=O)[C@H](Cc2ccccc2)NC(=O)[C@H](CCCNC(=N)N)NC1=O` ({CH2CO}-YLRF[Orn]PKDRGGC-NH2; thioether N-12), the half-inhibitory concentration (IC50) came to 2.1 µM.

`CC(C)C[C@@H]1NC(=O)[C@H](CCCNC(=N)N)NC(=O)[C@H](C)NC(=O)[C@H](Cc2ccc(O)cc2)NC(=O)CSC[C@@H](C(N)=O)NC(=O)CNC(=O)CNC(=O)[C@H](CCC(N)=O)NC(=O)[C@H](CC(N)=O)NC(=O)[C@H]([C@@H](C)O)NC(=O)[C@@H]2CCCN2C(=O)[C@H](CCCCN)NC1=O` ({CH2CO}-YARLKPTNQGGC-NH2; thioether N-12): the IC50 turned out to be 410 µM.

As to `CC(C)C[C@@H]1NC(=O)[C@H](Cc2ccc(O)cc2)NC(=O)CSC[C@@H](C(N)=O)NC(=O)[C@H](C)NC(=O)CNC(=O)[C@H](CCC(N)=O)NC(=O)[C@H](CC(N)=O)NC(=O)[C@H]([C@@H](C)O)NC(=O)[C@@H]2CCCN2C(=O)[C@H](CCCCN)NC(=O)[C@H](CC(C)C)NC(=O)[C@H](CCCNC(=N)N)NC1=O` ({CH2CO}-YLRLKPTNQGAC-NH2; thioether N-12), the IC50 was found to be 73 µM. For `CC(C)C[C@@H]1NC(=O)[C@H](Cc2ccc(O)c([N+](=O)[O-])c2)NC(=O)CSC[C@@H](C(N)=O)NC(=O)CNC(=O)CNC(=O)[C@H](CCCNC(=N)N)NC(=O)[C@H](CC(=O)O)NC(=O)[C@H](CCCCN)NC(=O)[C@@H]2CCCN2C(=O)[C@H](CCCNC(=N)N)NC(=O)[C@H](Cc2ccccc2)NC(=O)[C@H](CCCNC(=N)N)NC1=O` ({CH2CO}-[Tyr(3-NO2)]LRFRPKDRGGC-NH2; thioether N-12), the IC50 is 90 µM. In the case of `CC(C)C[C@@H]1NC(=O)[C@H](CCc2ccc(O)cc2)NC(=O)CSC[C@@H](C(N)=O)NC(=O)CNC(=O)CNC(=O)[C@H](CCCNC(=N)N)NC(=O)[C@H](CC(=O)O)NC(=O)[C@H](CCCCN)NC(=O)[C@@H]2CCCN2C(=O)[C@H](CCCNC(=N)N)NC(=O)[C@H](Cc2ccccc2)NC(=O)[C@H](CCCNC(=N)N)NC1=O` ({CH2CO}-[hTyr]LRFRPKDRGGC-NH2; thioether N-12) it was 370 µM; in that of `CC(C)C[C@@H]1NC(=O)[C@H](Cc2ccc(O)c(F)c2)NC(=O)CSC[C@@H](C(N)=O)NC(=O)CNC(=O)CNC(=O)[C@H](CCCNC(=N)N)NC(=O)[C@H](CC(=O)O)NC(=O)[C@H](CCCCN)NC(=O)[C@@H]2CCCN2C(=O)[C@H](CCCNC(=N)N)NC(=O)[C@H](Cc2ccccc2)NC(=O)[C@H](CCCNC(=N)N)NC1=O` ({CH2CO}-[Tyr(3-F)]LRFRPKDRGGC-NH2; thioether N-12), 0.15 µM; in that of `CC(C)C[C@@H]1NC(=O)[C@H](Cc2ccc(O)cc2)NC(=O)CSC[C@@H](C(N)=O)NC(=O)CNC(=O)CNC(=O)[C@H](CCCNC(=N)N)NC(=O)[C@H](CC(=O)O)NC(=O)[C@H](CCCCN)NC(=O)[C@@H]2CCCN2C(=O)[C@H](CCCCN)NC(=O)[C@H](Cc2ccccc2)NC(=O)[C@H](CCCNC(=N)N)NC1=O` ({CH2CO}-YLRFKPKDRGGC-NH2; thioether N-12), 0.065 µM.

As to `CC(C)C[C@@H]1NC(=O)[C@H](Cc2ccc(O)cc2)NC(=O)CSC[C@@H](C(N)=O)NC(=O)CNC(=O)CNC(=O)[C@H](CCCNC(=N)N)NC(=O)[C@H](CC(=O)O)NC(=O)[C@H](CCCCN)NC(=O)[C@@H]2CCCN2C(=O)[C@H](CCCNC(=N)N)NC(=O)[C@H](Cc2cccc3ccccc23)NC(=O)[C@H](CCCNC(=N)N)NC1=O` ({CH2CO}-YLR[1Nal]RPKDRGGC-NH2; thioether N-12), the IC50 was found to be 0.068 µM. Regarding `CC(C)C[C@@H]1NC(=O)[C@H](Cc2ccc(O)cc2)NC(=O)CSC[C@@H](C(N)=O)NC(=O)CNC(=O)CNC(=O)[C@H](CCC(N)=O)NC(=O)[C@H](CC(N)=O)NC(=O)[C@H]([C@@H](C)O)NC(=O)[C@@H]2CCCN2C(=O)[C@H](CCCCN)NC(=O)[C@H](C)NC(=O)[C@H](CCCNC(=N)N)NC1=O` ({CH2CO}-YLRAKPTNQGGC-NH2; thioether N-12), the IC50 turned out to be 13 µM.
